Measurements reported in publication PMC8868346, “Novel Series of Dual NRF2 Inducers and Selective MAO-B Inhibitors for the Treatment of Parkinson’s Disease” (Antioxidants, 2022).
Like-named read-outs stand apart in the source and are kept apart here.

Assays:
NRF2 = NRF2 induction, luciferase activity in AREc32 reporter cells; type: cell-based, human; conditions: for CD (µM) NRF2 Induction / EC50: AREc32 cells, 24 h, concentration required to double luciferase activity compared to basal; for fold potentiation of NRF2 induction compared to the corresponding -OMe derivative: 11, 12 vs 10, 14, 15 vs 13; for EC50: Homo sapiens, read-out: CD (µM) NRF2 Induction
Procedure: Cells were used from the third to twelfth passage.
AREc32 cells were stably transfected with the plasmid pGL-8xARE that implements 8 copies of the antioxidant response element (ARE) sequences followed by luciferase reporter gen. Therefore, NRF2 induction can be related to the activation of ARE sequences by measuring luciferase activity in terms of luminescence production. For NRF2 induction experiments, cells were plated in 96 white flat bottom well plates (20,000 cells/well). After 24 h, cells were incubated with selected compounds at the desired concentrations in duplicates for 24 h. The Luciferase Assay System (Promega E1500) was used according to provider protocol and luminescence was quantified in an Orion II microplate luminometer (Berthold, Germany). Fold induction of luciferase activity was normalized to basal conditions. Data were expressed as CD values, which means the concentration needed to duplicate the luciferase activity compared to basal conditions. CD values were calculated from dose–response curves fitted by non-linear regression for each compound after logarithmic transformation of the data using GraphPad Prism 8.0 software.

hrMAO-B = molecular target: T1, hrMAO-B (Homo sapiens, UniProt P27338); assay: Inhibition of monoamine oxidase B (Amplex UltraRed, tyramine); type: biochemical; conditions: for Selectivity Index (MAO-A/MAO-B): ratio IC50 MAO-A/IC50 MAO-B
T1 construct: purchased Sigma–Aldrich
T1 sequence (P27338 1-520): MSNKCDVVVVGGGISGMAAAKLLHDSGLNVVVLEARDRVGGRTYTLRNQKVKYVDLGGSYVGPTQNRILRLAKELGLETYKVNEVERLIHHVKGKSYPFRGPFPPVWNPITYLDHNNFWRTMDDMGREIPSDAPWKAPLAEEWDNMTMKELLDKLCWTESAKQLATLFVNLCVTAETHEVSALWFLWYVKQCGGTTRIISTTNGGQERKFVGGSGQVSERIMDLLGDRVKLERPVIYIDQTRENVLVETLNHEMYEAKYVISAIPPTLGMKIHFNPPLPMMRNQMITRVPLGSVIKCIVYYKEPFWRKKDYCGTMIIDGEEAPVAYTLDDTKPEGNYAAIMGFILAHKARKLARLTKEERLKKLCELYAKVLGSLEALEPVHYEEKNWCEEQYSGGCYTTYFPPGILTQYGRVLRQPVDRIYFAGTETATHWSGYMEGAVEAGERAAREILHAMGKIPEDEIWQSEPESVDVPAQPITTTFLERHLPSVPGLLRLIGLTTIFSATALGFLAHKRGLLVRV

hrMAO-A = molecular target: T2, hrMAO-A (Homo sapiens, UniProt P21397); assay: Inhibition of monoamine oxidase A (Amplex UltraRed, tyramine); type: biochemical
T2 construct: purchased Sigma–Aldrich
T2 sequence (P21397 1-527): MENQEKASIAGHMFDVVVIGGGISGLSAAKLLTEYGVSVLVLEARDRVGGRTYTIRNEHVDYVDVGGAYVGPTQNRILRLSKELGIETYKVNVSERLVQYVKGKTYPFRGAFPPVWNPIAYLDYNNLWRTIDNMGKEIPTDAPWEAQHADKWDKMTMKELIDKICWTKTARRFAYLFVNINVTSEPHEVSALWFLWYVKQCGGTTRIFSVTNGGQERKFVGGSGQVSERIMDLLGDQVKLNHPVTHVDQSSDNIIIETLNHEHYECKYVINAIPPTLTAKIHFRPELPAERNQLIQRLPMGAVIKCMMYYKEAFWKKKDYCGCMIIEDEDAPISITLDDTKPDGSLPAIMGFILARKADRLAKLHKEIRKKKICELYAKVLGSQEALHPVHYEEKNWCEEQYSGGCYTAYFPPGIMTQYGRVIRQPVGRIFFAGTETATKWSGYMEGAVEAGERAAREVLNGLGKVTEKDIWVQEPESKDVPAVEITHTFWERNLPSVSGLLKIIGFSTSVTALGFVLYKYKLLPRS

[1] = Oxygen radical absorbance capacity (ORAC) assay; conditions: Trolox equivalents; AAPH, fluorescein
Procedure: The ORAC test was performed to evaluate the oxygen free radical scavenger capacity of the compounds. […] Compounds at desired concentrations (0.03, 0.1, 0.3, 1, 3, and 10 µM) were diluted in phosphate-buffered saline (PBS; 10 mM, pH 7.4) at 37 °C and placed in a 96 black flat bottom well plate. […] A fluorescence measurement was done first to determine the basal signal. Then, 25 µL of 2, 2′-azobis-amidinopropane dihydrochloride (AAPH) (12 mM final concentration) was quickly added. All samples were measured in duplicates in three different experiments. […] Results were expressed in terms of Trolox equivalents (T.eq.), obtained by plotting net AUC versus compound concentration, then performing linear regression and normalizing slopes of the compounds considering Trolox as reference.

SH-SY5Y cells [2] = assay: Neuroprotection in SH-SY5Y against rotenone/oligomycin A (MTT); type: cell-based, human; conditions: compound 0.1 µM, 24 h pre- and 24 h co-incubation
Procedure: (§1) Cells were seeded at a density of 60,000 cells/well in 96-well transparent plates for 24 h. Then cells were pre-incubated with the corresponding compound at 0.1 μM. After 24 h, the medium was removed and replaced with 1% (v/v) FBS media containing the corresponding compound at 0.1 µM and the selected toxic stimuli, namely a mixture of rotenone and oligomycin A (R/O; 30/10 μM, respectively; Sigma–Aldrich, Spain) or 6-hydroxydopamine (100 µM; Sigma–Aldrich, Spain). […].

SH-SY5Y cells [3] = assay: Neuroprotection in SH-SY5Y against 6-hydroxydopamine (MTT); type: cell-based, human; conditions: 6-OHDA 100 µM; compound 0.1 µM, 24 h pre- and 24 h co-incubation
Procedure: as §1

AREc32 = conditions: MTT reduction
Procedure: AREc32 cells, shared by CR Wolf, were grown in Dulbecco’s modified Eagle medium (DMEM) with GlutaMAX (Gibco, Invitrogen, Madrid, Spain), supplemented with 10% (v/v) filtrated fetal bovine serum (FBS; Gibco, Invitrogen, Madrid, Spain), 1% of antibiotics penicillin-streptomycin, and geneticin (0.8 mg/mL G418; Gibco, Invitrogen, Madrid, Spain). […] They were recovered by centrifugation at 800 rpm for 10 min. Cells were used from the third to twelfth passage.
(§2) Basal absorbance was set to 100% and results were normalized to basal conditions.
(§3) Cytotoxicity. LD50 values in several cell cultures employed
(§4) Table S2. Cytotoxicity elicited by 10-18 compounds in SH-SY5Y, AREc32 and mixed pr imary glial cultures. Viability was measured as MTT reduction in presence of increasing concentrations of der ivatives. LD50 values were calcula ted from dose-response curves. Data are expr essed as mean ± SEM of at least 3 independent experiments.
(§5) 1.3. PAMPA control compounds (BBB permeability)
(§6) Table S3. Pr ediction of the BBB passive permeability of control compounds

[4] = system: Mixed primary glial cultures; assay: Cytotoxicity in mixed primary glial cultures (MTT); conditions: MTT reduction
Procedure: Mixed primary glial cultures were obtained from cerebral cortex of 2–5-day-old Sprague–Dawley rats. Blood vessels and meninges were first removed in Hank’s balanced salt solution (HBSS) and then forebrains were dissociated in DMEM/F12 medium. After mechanical dissociation, filtering, and centrifugation at 800 rpm for 10 min, cells were plated at a density of 30,000 cells/well in DMEM/F12 medium with 20% (v/v) FBS and 1% penicillin/streptomycin (10,000 units). […] After 5 days, medium was substituted by DMEM/F12 medium with 10% (v/v) FBS. Cells were cultured for 7–10 days before treatment.
as §2, §3, §4, §5, §6

[5] = system: blood-brain barrier (passive diffusion); assay: Blood–brain barrier permeation assay (PAMPA); conditions: PAMPA, pH 7.4
Procedure: (§7) Briefly, permeability of the compounds was measured at an initial concentration of 100 µM, including positive and negative controls (Supplementary Data; Table S3). […] After 5 min, 180 µL of each compound solution in PBS (10 mM, pH 7.4) was added to determine their ability to pass the membrane (VD). The 96-well acceptor plate (Multiscreen, Millipore Corp., Madrid Spain) was loaded with 180 µL of PBS (VA). Then, the donor filter plate was carefully placed on the acceptor plate to form a sandwich-like system, which was left undisturbed for 4 h at room temperature. After incubation, the donor plate was removed and the absorbance at the maximum absorption wavelength for each compound was recorded in both the acceptor and donor wells (150 µL/well) using a UV plate reader SPECTROstar Nano (BMG Labtech, Ortenberg, Germany). Concentration of the compounds in the donor and acceptor plates and equilibrium concentration were calculated and expressed as permeability (Pe) according the Equation (1). Results are expressed as mean ± standard error of the mean (SEM) of at least three different experiments in duplicate:(1) logPe =log{C×−ln(1−[drug]acceptor/[drug]equilibrium)} where C=(VD×VA/(VD +VA)×Area×Time) .

SH-SY5Y = conditions: MTT reduction
Procedure: They were recovered by centrifugation at 800 rpm for 10 min. Cells from the third to twelfth passage were seeded at a density of 80,000 cells/well in 96-well plates for the neuroprotection studies.
as §2, §3, §4, §5, §6

[6] = Blood–brain barrier permeation assay (PAMPA); conditions: for PAMPA Prediction: BBB permeability class from Pe
Procedure: as §7

MAO-B = molecular target: T3, MAO-B (Homo sapiens, UniProt P27338); assay: MAO-B reversibility assay (pre-incubation times); type: biochemical; conditions: 0, 15, 30 min pre-incubation at […] IC50
T3 construct: purchased Sigma–Aldrich
T3 sequence (P27338 1-520): T1 sequence (P27338 1-520)

[7] = system: blood-brain barrier (passive diffusion); assay: in vitro; conditions: PAMPA, pH 7.4
Procedure: as §7

[8] = 30 min pre-incubation, 37 °C, read-out: IC50 MAO-B
[9] = 30 min pre-incubation, 37 °C, read-out: IC50 MAO-A

Structure (SMILES) | CD (µM) NRF2 Induction (NRF2) | IC50 (hrMAO-B; [8]) | Selectivity Index (MAO-A/MAO-B) (hrMAO-B) | IC50 (hrMAO-A; [9]) | ORAC (T. eq.) [1] | R/O (30/10 µM) Protection (%) (SH-SY5Y cells [2]) | 6-OHDA Protection (%) (SH-SY5Y cells [3]) | LD50 (µM) AREc32 (AREc32) | LD50 (µM) Mixed primary glial cultures [4] | Papp at 4 h, 100 µM [5] | fold potentiation of NRF2 induction compared to the corresponding -OMe derivative (NRF2) | EC50 (NRF2) | LD50 (µM) SH-SY5Y (SH-SY5Y) | PAMPA Pe (10^−6 cm s^−1) ([6]; 100 µM, porcine brain lipid, 4 h, PBS pH 7.4) | PAMPA Prediction [6] | IC50 (hrMAO-B) | IC50 (hrMAO-A) | MAO-B inhibition reversibility (MAO-B) | Papp [7] | MAO isozyme selectivity (hrMAO-B; MAO-B vs MAO-A)
C#CC(=O)NCCc1c[nH]c2ccc(OC(=O)/C=C/c3ccc(C)cc3)cc12 [Compound 18, 3-(2-Propiolamidoethyl)-1H-indol-5-yl-(E)-3-(p-tolyl) Acrylate] | no activity | 13.9 ± 1.2 µM | 5.89 | 81.9 ± 5.4 µM | 1.42 ± 0.13 T. eq. | 32.1% | 43.8% | < 1 µM | 1.21 ± 0.24 µM | 2.04 ± 3.2 ×10⁻⁶ cm/s | – | – | – | – | – | – | – | – | – | –
C#CCNCCc1c[nH]c2ccc(OC(=O)/C=C/c3ccc(C)cc3)cc12 [Compound 12, 3-(2-(Prop-2-yn-1-ylamino)ethyl)-1H-indol-5-yl-(E)-3-(p-tolyl)acrylate] | – | 3.03 ± 0.27 µM | – | 59.1 ± 6 µM | – | 53.5% | absence of protection | 11.1 ± 2.0 µM | 7.42 ± 1.3 µM | 1.84 ± 0.48 ×10⁻⁶ cm/s | 10 fold | 2.99 ± 0.26 µM | 11.6 ± 0.90 µM | low Pe value | CNS − (CNS—(low BBB permeability): Pe (10^−6 cm s^−1) < 2.0) | – | – | – | – | –
C#CCNCCc1c[nH]c2ccc(OC(=O)C=Cc3ccccc3)cc12 [Compound 11, 3-(2-(Prop-2-yn-1-ylamino)ethyl)-1H-indol-5-yl Cinnamate] | – | – | – | – | – | 48.6% | absence of protection | 7.83 ± 1.2 µM | 17.8 ± 2.9 µM | – | 7 fold | 1.8 ± 0.28 µM | 16.4 ± 2.32 µM | – | CNS + (CNS + (high BBB permeability): Pe (10^−6 cm s^−1) > 4.0) | 3 ± 0.21 µM | 43.8 ± 6.5 µM | reversible inhibition | 5.08 ± 1.7 ×10⁻⁶ cm/s | –
C#CC(=O)NCCc1c[nH]c2ccc(OC(=O)C=Cc3ccccc3)cc12 [Compound 17, 3-(2-Propiolamidoethyl)-1H-indol-5-yl Cinnamate] | no activity | 50 ± 2.9 µM | – | > 100 µM | 2.27 ± 0.08 T. eq. | 49.3% | 58.4% | < 1 µM | – | 3.12 ± 1.2 ×10⁻⁶ cm/s | – | – | 9.06 ± 0.31 µM | – | – | – | – | reversible inhibition | – | –
CC(C)(C)c1cc(O)ccc1O [TBHQ, Tert-Butylhydroquinone, reference compound] | – | – | – | – | – | – | – | – | – | – | – | 1.82 ± 0.09 µM | – | – | – | – | – | – | – | –
Cn1c(=O)c2c(ncn2C)n(C)c1=O [Caffeine, reference compound] | – | – | – | – | – | – | – | – | – | – | – | – | – | – | CNS - | – | – | – | – | –
C#CC(=O)NCCc1c[nH]c2ccc(OC)cc12 [Compound 16, N-(2-(5-Methoxy-1H-indol-3-yl)ethyl) Propiolamide] | – | > 100 µM | at least 2 | > 100 µM | 2.67 ± 0.14 T. eq. | 47.3% | 48.1% | – | 8.81 ± 2.2 µM | 6.64 ± 1.3 ×10⁻⁶ cm/s | – | 1.35 ± 0.12 µM | 4.87 ± 0.60 µM | – | CNS + (CNS + (high BBB permeability): Pe (10^−6 cm s^−1) > 4.0) | – | – | – | – | not active
